According to US20070004660A1, “Synergistic Modulation of Flt3 Kinase Using Alkylquinolines and Alkylquinazolines” (priority 2005, published 2007):

Columns and labels:
Baf3-FLT3 cells = assay: Cell proliferation assay, single agents and FTI/FLT3 inhibitor combinations, Baf3-FLT3; format: cell-based, murine; conditions: with single sub-IC50 dose of FLT3 inhibitor Compound A, 100 nM
Procedure: The cell lines that were tested included those that are dependent on FLT3ITD mutant activity for growth (MV4-11 and Baf3-FLT3ITD), FLT3wt activity for growth (Baf3FLT3) and those that grow independent of FLT3 activity (THP-1). […] Baf3-FLT3 and Baf3-FLT3ITD cell lines were obtained from Dr. Michael Henrich and the Oregon Health Sciences University. The Baf3 FLT3 cell lines were created by stable transfection of parental Baf3 cells (a murine B cell lymphoma line dependent on the cytokine IL-3 for growth) with either wild-type FLT3 or FLT3 containing the ITD insertion in the juxatamembrane domain of the receptor resulting in its constitutive activation. […]
To statistically evaluate the synergy of a FLT3 inhibitor and an FTI in FLT3 dependent cell lines, dosing combinations were evaluated by the method of Chou and Talalay. See Chou T C, Talalay P. (1984) “Quantitative analysis of dose-effect relationships: the combined effects of multiple drugs or enzyme inhibitors.” Adv Enzyme Regul. […] Using this method, multiple FTI and FLT3 combinations were evaluated. […]
Cell proliferation assay for MV4-11, Baf3-ITD, Baf3-FLT3 and THP-1 cells. […] Total cell growth is quantified as the difference in luminescent counts (relative light units, RLU) of cell number at Day 0 compared to total cell number at Day 3 (72 hours of growth and/or compound treatment). […]

MV-4-11 tumor xenografts = assay: In vivo combination study, FLT3 inhibitor Compound B and Tipifarnib, MV-4-11 xenografts
Procedure: The effect of combination treatment of the FLT3 Inhibitor FLT3 inhibitors of Formula I′ and Tipifarnib (Zarnestra™) on the growth of MV-4-11 human AML tumor xenografts in nude mice was tested using FLT3 inhibitor Compound B. The in vivo study was designed to extend the in vitro observations to evaluate the potential for a synergistic anti-tumor effect of FLT3 inhibitor Compound B administered orally together with Tipifarnib to nude mice bearing established MV-4-11 tumor xenografts.

Cn1cncc1C(N)(c1ccc(Cl)cc1)c1ccc2c(c1)c(-c1cccc(Cl)c1)cc(=O)n2C (single isomer, unassigned; (+)) [Tipifarnib, (+)-6-[amino(4-chlorophenyl)(1-methyl-1H-imidazol-5-yl)methyl]-4-(3-chlorophenyl)-1-methyl-2(1H)-quinolinone]
increase in potency of Tipifarnib (Baf3-FLT3 cells): more than 3 fold | effect on tumor volume compared to control (MV-4-11 tumor xenografts; 50 mg/kg po alone, Day 9): not significantly reduced | overt toxicity (MV-4-11 tumor xenografts; 9-day treatment, either agent alone or in combination): No overt toxicity
